The term GI50 denotes the concentration at which growth is held to half of that of the control. Broadly, the IC50 is the concentration that gives 50% inhibition.

Where only a bound is given, the exact number is not on record here.

In assay [1] the test system is 22RV1 cells. Nature of the assay: Cell growth inhibition of 22RV1 cells (CellTiter-Glo). It counts as cell-based. As to conditions: Homo sapiens, 22Rv1, 120 h, 5 days, CellTiter-Glo, read-out: 22RV1 Cell Growh GI50. The method, then: For cell growth assay, 22RV1 (ATCC, CRL-2505) cells were seeded in 96-well plates at 1000 cells/well in 90 μl of RPMI1640 growth medium containing 20% FBS and 1% Penicillin Streptomycin, and then incubated at 37° C. overnight. The following day, the test compound was administered to the cells by using 1000× compound stock solution prepared in DMSO at various concentrations. 1000× compound stock solution was first diluted in culturing medium to 10×, then 10 uL compound medium was added to each well in the cell plates. After administration of the compound, the cells were then incubated at 37° C. for 5 days. Upon completion, the plates were equilibrated at room temperature for approximately 10 min. 100 μl of CellTiter-Glo® Reagent (Promega) was added to each well. The plates were then incubated at room temperature for 10 min and luminescence was recorded by EnSpire plate reader (PerkinElmer).
22RV1 cells were obtained from American Type Culture Collection (ATCC, CRL-2505). 22RV1 cells were seeded in 96-well plates at 1000 cells/well in 90 μL of RPMI1640 growth medium containing 10% FBS and 1% Penicillin Streptomycin, and then incubated at 37° C. overnight. The following day, the test compound was administered to the cells by using 1000× compound stock solution prepared in DMSO at various concentrations. […], then 10 uL compound medium was added to each well in the cell plates. After administration of the compound, the cells were then incubated at […] for 5 days. Upon completion, the plates were equilibrated at room temperature for approximately 10 minutes. 100 μL of CellTiter-Glo® Reagent (Promega) was added to each well. The plates were then incubated at room temperature for 10 minutes and luminescence was recorded by EnSpire plate reader (PerkinElmer).
On the technique in general: Cellular ATP, detected with luciferase, serves as a proxy for viable cell number.

For assay [2], the system named is Phospho-Rb (Ser807/811) in MCF7 cells. Kind of assay: Phospho-Rb expression inhibition in MCF7 cells quantified by in cell Western. In kind it is cell-based, human. The note with it: Homo sapiens, MCF7, 24 h, 24 hours, in cell Western, read-out: MCF7 pRb IC50. The method, then:
MCF7 cells were obtained from American Type Culture Collection (ATCC, HTB-22). MCF7 cells were plated in 96-well plates (VWR #10062-900, or Coming #3904) in 90 μL culture medium at a density of 20,000 cells/well in the DMEM growth medium containing 10%/FBS and 1% Penicillin Streptomycin, and then incubated at 37° C. overnight. The following day, the test compound was administered to the cells by using 1000× compound stock solution prepared in DMSO at various concentrations. 1000× compound stock solution was first diluted in culturing medium to 10×, then 10 μL compound medium was added to each well in the cell plates. After administration of the compound, the cells were then incubated at 37° C. for 24 h. Upon completion, the cells were washed with PBS briefly. 150 μL/well of 4% formaldehyde was added and the plates were incubated at room temperature for 20 min. The cells were washed with PBS briefly, and permeabilized with 150 µL/well of ice cold 100% methanol for 10 min. The cells were washed with PBS briefly and blocked with 100 µL/well LI-COR blocking buffer for 1 h at room temperature with gentle shaking. The cells were incubated overnight at 4° C. with 50 μL primary antibody rabbit anti-Phospho-Rb (Ser807/811) (1: 500, Cell Signaling, #8516) and anti-Rb (1:200, Santa Cruz, sc-73598) diluted in Intercept Blocking Buffer (LI-COR, #927-60001) containing 0.1% Tween 20. The next day, the cells were washed with 200 μL PBS containing 0.1% Tween 20, 5×5 mins at room temperature with gentle shaking, and incubated with 50 μL secondary antibody, IRDye® 800CW Goat anti-Rabbit IgG (1:1000, LI-COR, #926-32211) and FRDye® 680RD Goat anti-Mouse IgG (1:1000, LI-COR, #926-68070), in LI-COR […] blocking buffer with 0.2% Tween 20 for 1 h at room temperature with gentle shaking. The cells were washed with 200 μL PBS containing 0.1% Tween 20, 5×5 min at room temperature with gentle shaking. The cells were washed with PBS for 5 mins. 100 μL fresh PBS was added to each well and the plates were imaged on a LI-COR Odyssey CLX plate reader.
MCF7 cells were obtained from American Type Culture Collection (ATCC, HTB-22). SW1573-CDK6 KO and SW1573-CDK4 KO cells were generated by the CRISPR-Cas9 technology. All cells were plated in 96-well plates (VWR #10062-900, or Corning #3904) in 90 uL culture medium at a density of 20,000 cells/well in the respective growth medium containing 10% FBS and 1% Penicillin Streptomycin, and then incubated at 37° C. overnight. The following day, the test compound was administered to the cells by using 1000× compound stock solution prepared in DMSO at various concentrations. 1000× compound stock solution was first diluted in culturing medium to 10×, then 10 uL compound medium was added to each well in the cell plates. After administration of the compound, the cells were then incubated at 37° C. for 24 hours. Upon completion, the cells were washed with PBS briefly. 150 uL/well of 4% formaldehyde was added and the plates were incubated at room temperature for 20 mins. The cells were washed with PBS briefly, and permeabilized with 150 uL/well of ice cold 100% methanol for 10 mins. The cells were washed with PBS briefly and blocked with 100 uL/well LI-COR blocking buffer for 1 hr at room temperature with gentle shaking. The cells were incubated overnight at 4° C. with 50 uL primary antibody rabbit anti-Phospho-Rb (Ser807/811) (1: 500, Cell Signaling, #8516) and anti-Rb (1:200, Santa Cruz, sc-73598) diluted in Intercept Blocking Buffer (LI-COR, #927-60001) containing 0.1% Tween 20. The next day, the cells were washed with 200 uL PBS containing 0.1% Tween 20, 5×5 mins at room temperature with gentle shaking, and incubated with 50 uL secondary antibody, IRDye® 800CW Goat anti-Rabbit IgG (1:1000, LI-COR, #926-32211) and IRDye®680RD Goat anti-Mouse IgG (1:1000, LI-COR, #926-68070), in LI-COR blocking buffer with 0.2% Tween 20 for 1 hr at room temperature with gentle shaking. […]

In the case of `[2H][C@H]1[C@@H](Nc2ncc(Cl)c(-c3cc(F)c4nc(C(C)(C)O)n(C(C)C)c4c3)n2)[C@H](O)[C@@H]2OC[C@H]1O2` [Compound 2, (1S,2S,3R,4S,5R)-3-((5-chloro-4-(4-fluoro-2-(2-hydroxypropan-2-yl)-1-isopropyl-1H-benzo[d]imidazol-6-yl)pyrimidin-2-yl)amino)-6,8-dioxabicyclo[3.2.1]octan-2-d-4-ol], the GI50 in assay [1] was ≤ 120 nM.

Consider `COC(=O)N1CC[C@@H](c2nc3c(F)cc(-c4nc(N[C@@H]5C[C@H]6CO[C@H](O6)[C@H]5O)ncc4Cl)cc3n2C(C)C)C1` [Compound 4, methyl (R)-3-(6-(5-chloro-2-(((1S,3R,4S,5R)-4-hydroxy-6,8-dioxabicyclo[3.2.1]octan-3-yl)amino)pyrimidin-4-yl)-4-fluoro-1-isopropyl-1H-benzo[d]imidazol-2-yl)pyrrolidine-1-carboxylate], for which the IC50 in assay [2] fell in the range of 40 to 150 nM. Besides, the GI50 in assay [1] lay within 120 to 450 nM. The matching figures for `CC(C)n1c([C@@H]2CCC(F)(F)C2)nc2c(F)cc(-c3nc(N[C@@H]4C[C@H]5CO[C@H](O5)[C@H]4O)ncc3Cl)cc21` [Compound 5, (1S,3R,4S,5R)-3-((5-chloro-4-(2-((R)-3,3-difluorocyclopentyl)-4-fluoro-1-isopropyl-1H-benzo[d]imidazol-6-yl)pyrimidin-2-yl)amino)-6,8-dioxabicyclo[3.2.1]octan-4-ol]: 150 to 1000 nM and 120 to 450 nM. Taken in the same sequence, the figures for `CC(C)n1c(C(C)(C)O)nc2c(F)cc(-c3nc(N[C@@H]4[C@H](C)[C@H]5CO[C@H](O5)[C@H]4O)ncc3Cl)cc21` [Compound 13, (1S,2S,3R,4S,5R)-3-((5-chloro-4-(4-fluoro-2-(2-hydroxypropan-2-yl)-1-isopropyl-1H-benzo[d]imidazol-6-yl)pyrimidin-2-yl)amino)-2-methyl-6,8-dioxabicyclo[3.2.1]octan-4-ol] were 40 to 150 nM and 120 to 450 nM. The matching figures for `COC(=O)N1CC[C@@H](c2nc3c(F)cc(-c4nc(N[C@@H]5[C@H](C)[C@H]6CO[C@H](O6)[C@H]5O)ncc4Cl)cc3n2C(C)C)C1` [Compound 23, methyl (R)-3-(6-(5-chloro-2-(((1S,2S,3R,4S,5R)-4-hydroxy-2-methyl-6,8-dioxabicyclo[3.2.1]octan-3-yl)amino)pyrimidin-4-yl)-4-fluoro-1-isopropyl-1H-benzo[d]imidazol-2-yl)pyrrolidine-1-carboxylate]: 40 to 150 nM and 120 to 450 nM.

On to `CC(C)n1c(C(C)(C)O)c(C#N)c2c(F)cc(-c3nc(N[C@@H]4C[C@H]5CO[C@H](O5)[C@H]4O)ncc3Cl)cc21` [Compound 26, 6-(5-chloro-2-(((1S,3R,4S,5R)-4-hydroxy-6,8-dioxabicyclo[3.2.1]octan-3-yl)amino)pyrimidin-4-yl)-4-fluoro-2-(2-hydroxypropan-2-yl)-1-isopropyl-1H-indole-3-carbonitrile], for which the concentration for half-maximal inhibition (IC50) in assay [2] was in the range of 40 to 150 nM. Also, the GI50 in assay [1] was ≤ 120 nM. Regarding `CC(C)n1c(C(C)(C)O)nc2c(F)cc(-c3nc(N[C@@H]4C[C@H]5CO[C@H](O5)[C@H]4O)ncc3F)cc21` [Compound 27, (1S,3R,4S,5R)-3-((5-fluoro-4-(4-fluoro-2-(2-hydroxypropan-2-yl)-1-isopropyl-1H-benzo[d]imidazol-6-yl)pyrimidin-2-yl)amino)-6,8-dioxabicyclo[3.2.1]octan-4-ol], in assay [2], the IC50 is 40 to 150 nM. Besides, the GI50 in assay [1] lay within 120 to 450 nM. Turning to `CC(C)n1c(C(C)(C)O)nc2c(F)cc(-c3nc(N[C@@H]4C[C@H]5CO[C@H](O5)[C@H]4O)ncc3C(F)F)cc21` [Compound 29, (1S,3R,4S,5R)-3-((5-(difluoromethyl)-4-(4-fluoro-2-(2-hydroxypropan-2-yl)-1-isopropyl-1H-benzo[d]imidazol-6-yl)pyrimidin-2-yl)amino)-6,8-dioxabicyclo[3.2.1]octan-4-ol], the IC50 in assay [2] was in the range of 150 to 1000 nM. Moreover, in assay [1], the GI50 lay within 450 to 3000 nM. Taken in the same sequence, the figures for `CC1=Nc2c(F)cc(-c3nc(N[C@@H]4C[C@H]5CO[C@H](O5)[C@H]4O)ncc3Cl)cc2C12CCCC2` [Compound 32, (1S,3R,4S,5R)-3-((5-chloro-4-(7′-fluoro-2′-methylspiro[cyclopentane-1,3′-indol]-5′-yl)pyrimidin-2-yl)amino)-6,8-dioxabicyclo[3.2.1]octan-4-ol] were ≤ 40 nM and ≤ 120 nM.

Turning to `CC(C)(O)C1=Nc2c(F)cc(-c3nc(N[C@@H]4C[C@H]5CO[C@H](O5)[C@H]4O)ncc3Cl)cc2C12CCCC2` [Compound 33, (1S,3R,4S,5R)-3-((5-chloro-4-(7′-fluoro-2′-(2-hydroxypropan-2-yl)spiro[cyclopentane-1,3′-indol]-5′-yl)pyrimidin-2-yl)amino)-6,8-dioxabicyclo[3.2.1]octan-4-ol], the IC50 in assay [2] lay within 40 to 150 nM. In addition, the GI50 in assay [1] was in the range of 120 to 450 nM. As to `C[C@H]1COc2c(-c3nc(N[C@@H]4C[C@H]5CO[C@H](O5)[C@H]4O)ncc3Cl)cc(F)c3nc(C(C)(C)O)n1c23` [Compound 37, (1S,3R,4S,5R)-3-((5-chloro-4-((S)-8-fluoro-2-(2-hydroxypropan-2-yl)-3-methyl-3,4-dihydro-5-oxa-1,2a-diazaacenaphthylen-6-yl)pyrimidin-2-yl)amino)-6,8-dioxabicyclo[3.2.1]octan-4-ol], in assay [2], the IC50 lay in the range of 40 to 150 nM. The GI50 in assay [1] was 120 to 450 nM. The matching figures for `C[C@@H]1COc2c(-c3nc(N[C@@H]4C[C@H]5CO[C@H](O5)[C@H]4O)ncc3Cl)cc(F)c3nc(C(C)(C)O)n1c23` [Compound 38, (1S,3R,4S,5R)-3-((5-chloro-4-((R)-8-fluoro-2-(2-hydroxypropan-2-yl)-3-methyl-3,4-dihydro-5-oxa-1,2a-diazaacenaphthylen-6-yl)pyrimidin-2-yl)amino)-6,8-dioxabicyclo[3.2.1]octan-4-ol]: ≤ 40 nM and 120 to 450 nM.

These data come from patent US20250084095A1, “Aminopyrimidine Derivatives as Cyclin-Dependent Kinase Inhibitors” (Accutar Biotechnology Inc., priority 2023, published 2025).
